Where two headings read alike, the source gives them in different places. Square brackets hold non-standard residues; d marks the D form. Peptide text beside a SMILES is read from it.
Biological target: T1, Human recombinant melanocortin MCI receptors (Homo sapiens, UniProt Q01726)
T1 construct: purchased Eurofins Discovery Item 251100; host or cells: CHO-K1
Experiment: MC1 Human Melanocortin GPCR Binding (Agonist Radioligand) competition assay (Eurofins Item 251100)
Procedure: The binding of Group A MCIR peptide antagonists of the disclosure was evaluated in a competition assay (MC1 Human Melanocortin GPCR Binding (Agonist Radioligand) Assay, Item 251100, Eurofins Discovery). […] Human recombinant melanocortin MCI receptors were expressed in CHO-K1 cells in modified HEPES-KOH buffer pH 7.0. […] Non-specific binding was estimated in the presence of 1 μM NDP-α-MSH. Receptors were filtered and washed, and the filters counted to determine [^125I] NDP-α-MSH specifically bound. Peptide antagonists of the disclosure having amino acid sequences as set forth in SEQ ID NOS: 11, 16, 25, 27, 32, 35, and 40 (each having a C-terminal —NH2) were screened at five concentrations, as well as a positive control, SEQ ID NO: 1 (Melanostatine-5). Inhibition curves were obtained by determining the reduction of bound α-MSH in the presence of an amount of, and/or by increasing amounts of, each peptide antagonist. Non-specific binding of peptide was estimated separately in the presence of a vast excess (1 mM) of unlabeled α-MSH, which occupies all the available receptor binding sites. Based on the competitive binding curve, the IC50 values were determined (Eurofins or AAT Bioquest IC50 calculator). […] The binding of Group A MCIR peptide antagonists of the disclosure was evaluated in a competition assay (MC1 Human Melanocortin GPCR Binding (Agonist Radioligand) Assay, Item 251100, Eurofins Discovery). […] Human recombinant melanocortin MCI receptors were expressed in CHO-K1 cells in modified HEPES-KOH buffer pH 7.0. […] Non-specific binding was estimated in the presence of 1 μM NDP-α-MSH. Receptors were filtered and washed, and the filters counted to determine [^125I]NDP-α-MSH specifically bound. Peptide antagonists of the disclosure having amino acid sequences as set forth in SEQ ID NOS: 11, 16, 25, 27, 32, 35, and 40 were screened at five concentrations. Inhibition curves were obtained by determining the reduction of bound α-MSH in the presence of an amount of, and/or by increasing amounts of, each peptide antagonist. […] Based on the percent inhibition relative to the agonist the IC50 values were determined (Eurofins or AAT Bioquest IC50 calculator).

[1] = Example 7, Table 7, binned, screened at five concentrations, read-out: IC50
[2] = stated as 'in some embodiments', broadest range, read-out: IC50 value using a competition assay

T1 sequence (Q01726 whole entry): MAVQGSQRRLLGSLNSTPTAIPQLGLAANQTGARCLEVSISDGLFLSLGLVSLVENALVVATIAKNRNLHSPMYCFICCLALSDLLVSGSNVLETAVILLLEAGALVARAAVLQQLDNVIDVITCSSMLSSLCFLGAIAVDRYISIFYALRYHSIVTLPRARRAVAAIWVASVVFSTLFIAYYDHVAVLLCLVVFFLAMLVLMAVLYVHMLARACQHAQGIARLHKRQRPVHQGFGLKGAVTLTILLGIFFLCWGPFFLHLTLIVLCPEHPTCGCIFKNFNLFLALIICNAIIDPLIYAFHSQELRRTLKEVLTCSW

SMILES | IC50 [1] [nM] | further results
CSCC[C@H](N)C(=O)N1CCC[C@H]1C(=O)N[C@H](Cc1ccccc1)C(=O)N[C@@H](CCCNC(=N)N)C(=O)N[C@H](Cc1c[nH]c2ccccc12)C(=O)N[C@@H](Cc1ccccc1)C(=O)N[C@@H](CCCCN)C(=O)N1CCC[C@H]1C(=O)N[C@H](C(N)=O)C(C)C [SEQ ID NO: 1, Met-Pro-D-Phe-Arg-D-Trp-Phe-Lys-Pro-Val, reference compound] (H-MP[dF]R[dW]FKPV-NH2) |  | IC50 (IC50, Example 7, Table 7, binned, screened at five concentrations): < 200 nM; IC50 (IC50 value, Example 1, competition with 0.04 nM [125I]NDP-α-MSH, 120 minutes at 37° C): 120 nM
CC(C)[C@H](NC(=O)[C@@H]1CCCN1C(=O)[C@H](CCCCN)NC(=O)[C@H](Cc1ccccc1)NC(=O)[C@@H](Cc1c[nH]c2ccccc12)NC(=O)[C@H](CCCNC(=N)N)NC(=O)[C@@H](Cc1ccccc1)NC(=O)[C@@H](NC(=O)[C@@H](N)CCC(=O)O)C(C)C)C(N)=O [SEQ ID NO: 25, Glu-Val-dPhe-Arg-dTrp-Phe-Lys-Pro-Val-NH2] (H-EV[dF]R[dW]FKPV-NH2) | > 500 | 
CSCC[C@H](N)C(=O)N[C@H](C(=O)N[C@@H](Cc1ccccc1)C(=O)N[C@@H](CCCNC(=N)N)C(=O)N[C@H](Cc1c[nH]c2ccccc12)C(=O)N[C@@H](Cc1ccccc1)C(=O)N[C@@H](CCCCN)C(=O)N1CCC[C@H]1C(=O)N[C@H](C(N)=O)C(C)C)C(C)C [SEQ ID NO: 27, Met-Val-Phe-Arg-dTrp-Phe-Lys-Pro-Val-NH2] (H-MVFR[dW]FKPV-NH2) | > 500 | 

Further lines, with some results ahead:

IC50 [1] [nM] | SMILES | further results
< 200 | CC[C@H](C)[C@H](N)C(=O)N[C@@H](Cc1ccccc1)C(=O)N[C@@H](CCCNC(=N)N)C(=O)N[C@H](Cc1c[nH]c2ccccc12)C(=O)N[C@@H](Cc1ccccc1)C(=O)N[C@@H](CCCCN)C(=O)N1CCC[C@H]1C(=O)N[C@H](C(N)=O)C(C)C [SEQ ID NO: 32, Ile-Phe-Arg-dTrp-Phe-Lys-Pro-Val-NH2] (H-IFR[dW]FKPV-NH2) | IC50 [2]: 70 to 160 nM
< 200 | CC(C)[C@H](NC(=O)[C@@H]1CCCN1C(=O)[C@H](CCCCN)NC(=O)[C@H](Cc1ccccc1)NC(=O)[C@@H](Cc1c[nH]c2ccccc12)NC(=O)[C@H](CCCNC(=N)N)NC(=O)[C@@H](Cc1ccccc1)NC(=O)[C@@H](NC(=O)[C@@H](N)Cc1ccccc1)C(C)C)C(N)=O [SEQ ID NO: 16, Phe-Val-dPhe-Arg-dTrp-Phe-Lys-Pro-Val-NH2] (H-FV[dF]R[dW]FKPV-NH2) | IC50 [2]: 70 to 160 nM
> 500 | CSCC[C@H](N)C(=O)N[C@H](C(=O)N[C@H](Cc1ccccc1)C(=O)N[C@H](CCCNC(=N)N)C(=O)N[C@H](Cc1c[nH]c2ccccc12)C(=O)N[C@@H](Cc1ccccc1)C(=O)N[C@@H](CCCCN)C(=O)N1CCC[C@H]1C(=O)N[C@H](C(N)=O)C(C)C)C(C)C [SEQ ID NO: 35, Met-Val-dPhe-dArg-dTrp-Phe-Lys-Pro-Val-NH2] (H-MV[dF][dR][dW]FKPV-NH2) | 
> 500 | CC(C)C[C@@H](NC(=O)[C@H](C)N)C(=O)N[C@H](Cc1ccccc1)C(=O)N[C@@H](CCCNC(=N)N)C(=O)N[C@H](Cc1c[nH]c2ccccc12)C(=O)N[C@@H](Cc1ccccc1)C(=O)N[C@@H](CCCCN)C(=O)N1CCC[C@H]1C(=O)N[C@H](C(N)=O)C(C)C [SEQ ID NO: 40, Ala-dLeu-dPhe-Arg-dTrp-Phe-Lys-Pro-Val-NH2] (H-A[dL][dF]R[dW]FKPV-NH2) | 
200 to 500 | CC(C)[C@H](NC(=O)[C@@H]1CCCN1C(=O)[C@H](CCCCN)NC(=O)[C@H](Cc1ccccc1)NC(=O)[C@@H](Cc1c[nH]c2ccccc12)NC(=O)[C@H](CCCNC(=N)N)NC(=O)[C@@H](Cc1ccccc1)NC(=O)[C@@H](NC(=O)[C@H](C)N)C(C)C)C(N)=O [SEQ ID NO: 11, Ala-Val-dPhe-Arg-dTrp-Phe-Lys-Pro-Val-NH2] (H-AV[dF]R[dW]FKPV-NH2) | 

From patent US20250026787A1, “PEPTIDES AND METHODS FOR REDUCING SKIN PIGMENTATION” (Glo Pharma, Inc., priority 2021, published 2025)
